Molecules are shown by their SMILES. Residues, ends and D or L forms follow the SMILES beside them.

We go through eight compounds from PMC3014376 (Vaccine, 2010).

Targets include HLA-A*6802 (Homo sapiens, UniProt P04439, A269V/D140Y/D185E/E176V/E277Q/E87N/F33Y/G231S/I121R/I166T/I218V/L180W/L300P/L318F/N151K/P208A/P217A/Q86R/R138H/R169H/S129P/T345S/V36M); HLA-A*0206 (Homo sapiens, UniProt P04439, D140Y/D185E/D98H/E176V/E277Q/F33Y/G131W/G231S/I119V/I121R/I166T/I218V/L300P/L318F/N151K/N90K/P208A/P217A/Q86G/Q94H/R138H/R169H/T345S); HLA-A*0202 (Homo sapiens, UniProt P04439, D140Y/D185E/D98H/E176V/E277Q/G131W/G231S/I119L/I121R/I166T/I218V/L180W/L300P/L318F/N151K/N90K/P208A/P217A/Q67R/Q86G/Q94H/R138H/R169H/T345S).

Common to all, as to assay: MHC-peptide binding assay

The term IC50 denotes the concentration that inhibits the measured activity by half. `CC[C@H](C)[C@H](NC(=O)[C@@H](NC(=O)[C@H](CC(C)C)NC(=O)[C@H](CC(C)C)NC(=O)[C@H](CO)NC(=O)[C@H](CC(C)C)NC(=O)[C@H](CO)NC(=O)[C@H](CC(C)C)NC(=O)[C@@H](N)Cc1ccccc1)C(C)C)C(=O)O` [SAG2C38–46] (H-FLSLSLLVI-OH): the IC50 was 9830 nM at HLA-A*6802 and greater than 10000 nM at HLA-A*0206.
In the case of `CC[C@H](C)[C@H](NC(=O)[C@H](CCSC)NC(=O)[C@@H](N)Cc1ccccc1)C(=O)N[C@@H](C)C(=O)N[C@@H](Cc1ccccc1)C(=O)N[C@H](C(=O)N[C@@H](CO)C(=O)N[C@@H](CS)C(=O)N[C@@H](Cc1ccccc1)C(=O)N[C@@H](C)C(=O)O)[C@@H](C)CC` [SAG2D180–189] (H-FMIAFISCFA-OH), the IC50 is 56 nM on HLA-A*0202, 397 nM at HLA-A*6802 and 112 nM at HLA-A*0206.
Regarding `CC[C@H](C)[C@H](NC(=O)[C@@H](NC(=O)[C@@H](N)Cc1ccccc1)C(C)C)C(=O)N[C@@H](Cc1ccccc1)C(=O)N[C@@H](C)C(=O)N[C@@H](CS)C(=O)N[C@@H](CC(N)=O)C(=O)N[C@@H](Cc1ccccc1)C(=O)N[C@H](C(=O)O)C(C)C` [SAG2X44–52] (H-FVIFACNFV-OH), the IC50 is 1.2 nM at HLA-A*6802 and 5.6 nM on HLA-A*0206.
In the case of `CC[C@H](C)[C@H](NC(=O)[C@H](CO)NC(=O)[C@@H](NC(=O)[C@@H](NC(=O)[C@H](CCSC)NC(=O)[C@@H](N)Cc1ccccc1)[C@@H](C)CC)C(C)C)C(=O)N[C@@H](CO)C(=O)N[C@@H](CC(C)C)C(=O)N[C@H](C(=O)O)C(C)C` [SAG2X351–359] (H-FMIVSISLV-OH), the IC50 at HLA-A*0202 was 1.8 nM; on HLA-A*6802, 48 nM; on HLA-A*0206, 6.2 nM.
Take `CC[C@H](C)[C@H](NC(=O)[C@H](Cc1ccc(O)cc1)NC(=O)[C@H](CC(=O)O)NC(=O)[C@@H](NC(=O)[C@H](CC(C)C)NC(=O)[C@@H](N)Cc1ccccc1)[C@@H](C)O)C(=O)N1CCC[C@H]1C(=O)NCC(=O)N[C@@H](C)C(=O)O` [SAG3_136–144] (H-FLTDYIPGA-OH): the IC50 on HLA-A*0202 is 7.1 nM; on HLA-A*6802, 2100 nM; at HLA-A*0206, 1.2 nM.
The like results for `CC(C)C[C@H](NC(=O)CNC(=O)[C@H](CC(C)C)NC(=O)[C@H](CC(C)C)NC(=O)[C@@H](N)Cc1ccccc1)C(=O)N[C@@H](CC(C)C)C(=O)N[C@H](C(=O)N[C@@H](Cc1c[nH]cn1)C(=O)N[C@H](C(=O)O)C(C)C)C(C)C` [SAG3_375–383] (H-FLLGLLVHV-OH) were, in that order, 37 nM, 173 nM and 9.9 nM.
In the case of `CC[C@H](C)[C@H](N)C(=O)N[C@H](C(=O)N[C@@H](CCSC)C(=O)NCC(=O)N[C@@H](CO)C(=O)N[C@@H](CC(C)C)C(=O)N[C@@H](Cc1ccccc1)C(=O)N[C@@H](Cc1ccccc1)C(=O)N[C@H](C(=O)O)C(C)C)[C@@H](C)O` [SPA12–20] (H-ITMGSLFFV-OH), the IC50 came out at 0.64 nM on HLA-A*0202, 1.1 nM on HLA-A*6802 and 0.26 nM at HLA-A*0206.
As to `CC(C)C[C@H](NC(=O)CN)C(=O)N[C@@H](C)C(=O)N[C@@H](C)C(=O)N[C@@H](C)C(=O)N[C@H](C(=O)N[C@H](C(=O)N[C@@H](C)C(=O)N[C@H](C(=O)O)C(C)C)C(C)C)C(C)C` [SPA82–90] (H-GLAAAVVAV-OH), the IC50 on HLA-A*6802 worked out at 263 nM; on HLA-A*0206, 55 nM.
